Assay results reported in patent US6723712B2, “Antiviral agent for use in treatment of cancer” (Institut Gustave Roussy, priority 1999, dated 2004).
“Also recorded” adds a separate entry of the source.

Legend:
[1] = test system: E6; assay: Immunoblot densitometry of E6 in HTB33 cells; format: cell-based, HPV; details: HTB33, Cidofovir 10 μg/ml, scored 1 without Cidofovir
Description: (§1) a2b2 HEP2 (a) and HTB33 (b) cells were cultured in the presence or absence of Cidofovir (10 μg/ml) for 3 and 6 days, and cells were collected in exponential phase, lysed and total protein were immunoblotted with the Ab-1 anti-E7, C1P5 […], and DO7 anti-p53. The blots were stripped and re-probed with a monoclonal β-actin antibody.
(§2) To prepare total proteins, cells lysates were extracted with lysis buffer 50 mM tris, pH 8, 120 mM NaCl, 0,1% SDS, and 0,5% NP-40. The protein concentration in the soluble fraction was determined by using a BioRad protein assay reagent. The viral oncoprotein LMP1 was detected by immunoblotting with a monoclonal anti-LMP1 antibody (clone CS1,CS2,CS3 & CS4 cocktail, RDI). The following antibodies were used: anti-Bcl2 (clone 100 Santa Cruz Biotechnology), anti-Bax (clone B-9, Santa Cruz, anti-E6 (clone CIP5, abcam), anti-E7 (clone Ab-1, oncogene), anti-p53 (clone DO7, Dako). Anti β-actin (clone AC-40, Sigma) was used to control protein loading. Autoradiograms of the Western blot were scanned with the Gil doc 1000 image scanner (Bio-rad, Hercules, Calif.) and densitometric analysis of the bands was performed using the molecular analyst software program (Bio-rad, Hercules, Calif.).

[2] = test system: p53; assay: Immunoblot densitometry of p53 in HTB33 cells; format: cell-based, human; details: HTB33, Cidofovir 10 μg/ml, scored 1 without Cidofovir
Description: as §1, §2

[3] = test system: E6; assay: Immunoblot densitometry of E6 in HEP2 cells; format: cell-based, HPV; details: HEP2, Cidofovir 10 μg/ml, scored 1 without Cidofovir
Description: as §1, §2

[4] = test system: p53; assay: Immunoblot densitometry of p53 in HEP2 cells; format: cell-based, human; details: HEP2, Cidofovir 10 μg/ml, scored 1 without Cidofovir
Description: as §1, §2

[5] = test system: E7; assay: Immunoblot of E7 in HPV+ HTB33 and HEP2 cells; format: cell-based; details: HPV+ cells exposed to Cidofovir 10 μg/ml
Description: as §1, §2

[6] = test system: LMP-1; assay: Western blot of LMP-1 in RAJI cells; format: cell-based, EBV
Description: b, RAJI cells were cultured in the presence or absence of Ciodofovir (10 μg/ml). […] For C15, at day 7 portions of tumors where lysed in RIPA buffer and protein extracts were immunoblotted with anti-LMP-1 antibody. The blot from b was stripped and re-probed with a monoclonal β-actin antibody.
as §2

[7] = test system: LMP-1; assay: Immunoblot of LMP-1 in C15 tumors; format: in vivo, EBV; details: intra-tumoral Cidofovir 50 mg/kg/day for 5 days, day 7
Description: (§3) a, RAJI cells were cultured in the presence of Cidofovir (5 and 10 μg/ml) and irrediated […] with 3 Gy and then assayed for apoptosis by FACS analysis. C15 tumors were injected intra-tumorally for 5 days with Cidofovir ([…]) and received 7 Gy on day 3 and 5. Animals were sacrified on day 7 and tumors were dissected and prepared for FACS analysis of propidium-iodide nuclei staining as described above.
(§4) b, RAJI cells were cultured in the presence or absence of Ciodofovir (10 μg/ml). At 48 hrs, cells were harvested and analyzed for the expression of LMP1, bcl-2 and bax by Western-blot. For C15, at day 7 portions of tumors where lysed in RIPA buffer and protein extracts were immunoblotted with anti-LMP-1 antibody. The blot from b was stripped and re-probed with a monoclonal β-actin antibody.
To prepare total proteins, cells lysates were extracted with lysis buffer 50 mM tris, pH 8, 120 mM NaCl, 0,1% SDS, and 0,5% NP-40. The protein concentration in the soluble fraction was determined by using a BioRad protein assay reagent. The viral oncoprotein LMP1 was detected by immunoblotting with a monoclonal anti-LMP1 antibody (clone CS1,CS2,CS3 & CS4 cocktail, RDI). […]

[8] = test system: Bcl2; assay: Western blot of Bcl2 in EBV+ cells; format: cell-based, human; details: Cidofovir 10 μg/ml, 48 hrs
Description: as §4, §2

[9] = test system: Bax; assay: Western blot of Bax in EBV+ cells; format: cell-based, human; details: Cidofovir 10 μg/ml, 48 hrs
Description: as §4, §2

[10] = test system: RAJI cells; assay: Apoptosis assay (FACS, sub-G1 peak) in RAJI cells; format: cell-based, human; details: Cidofovir 10 μg/ml combined with irradiation (3 and 6 Gy)
Description: as §3
(§5) The cell cycle distribution was estimated by staining ethanol-fixed cells with propidium iodide and monitoring by FACScan flow cytometer (Becton Dickinson) using cellQuest software. Briefly, 1×10^6 cells were cultured without or with 5 and 10 μg/ml of Cidofovir, 24 hours later cells were irradiated with 3 and 6 Gy and collected 12 and 24 hours after irradiation. The percentage of apoptotic cells was determined by sub-G1 peak.

[11] = test system: C15 tumors; assay: Apoptosis assay (FACS, propidium iodide) in C15; format: in vivo, human; details: C15, Cidofovir combined with irradiation
Description: as §3, §5

[12] = test system: EBV+ and HPV+ cell lines (C15, Raji, HTB33, HEP2); assay: Clonogenic survival and proliferation test with irradiation, EBV+ and HPV+ cell lines; format: cell-based, human; details: cidofovir 1 to 10 μg/ml combined with irradiation, virus-related cells
Description: (§6) Irradiation of cells was performed using a ^137Cs γ-rays source at a dose rate of 1.45 Gy.min^−1. Briefly survival curves were obtained by irradiating cells (0 to 6 Gy). The linear-quadratic model was used for fitting survival curves. Quantification of radiosensitivity was obtained by the surviving fraction at 2 Gy (SF2). Cell survival was also assessed by using proliferation tests (incorporation of tritiated thymidine and MTT). Irradiation of animals was performed using a 200 kv apparatus.
(§7) It was studied in EBV+ human carcinoma C15 cells, EBV+ lymphoma Raji cells, 2 HPV+ carcinoma HTB33 and HEP2 cells. The effect of the combination was also studied in 3 human cell lines lacking the viral infection namely Ramos (lymphoma) HTB31 and SCC97 (carcinoma) cells.
(§8) For each cell line, several concentrations of cidofovir were used in vitro in combination with irradiation (between 1 and 10 μg/ml). The effect of the combined treatment was evaluated using both a proliferation test and a clonogenic assay for cell survival.

[13] = test system: Ramos, HTB31, and SCC97 cells; assay: Clonogenic survival and proliferation test with irradiation, non virus-containing cells; format: cell-based, human; details: cidofovir 1 to 10 μg/ml combined with irradiation, non virus-related cells
Description: as §6, §7, §8

[14] = test system: C15, Raji, HEP2, HTB33 tumor xenografts; assay: Tumor growth of virus-positive human xenografts in nude mice; format: in vivo
Description: (§9) In vivo data are reported as the percentage of original (day 0) tumor volume and plotted as fractional tumor volume±S.E. Statistical significance was determined by Kruskal/Wallis and Mann-Withney U tests.
(§10) Female Swiss nu/nu mice were housed throughout experiments in sterile isolators and fed ad libitum with irradiated food (UAR, Villemoisson/Orge, France) and filtered water. Experiments were performed according to the regulation n°86/609/CEE of the European Community. Cell lines were established in vivo in Swiss athymic mice by subcutaneous injection in the right flank of 5×10^6 cells per animal and subsequently maintained in vivo by sequential passages in animals aged 6 to 8 weeks. Nude mice bearing 500-1000 mm3 tumors were used for in vivo experiments. Two types of control were used including both injection of PBS (intra-tumor and intravenous (IV)), irradiation alone, or chemotherapy alone.
as §6
The example presented herewith also relates to the combination of cidofovir with irradiation which was evaluated in vivo in various human viral-associated and also in non viral associated human cancers. The effect of cidofovir alone or combined with irradiation was studied in vivo in nude mice bearing 500-1000 mm3 tumor xenografts. The treatment consisted of 60 mg/kg daily of cidofovir intra-tumor injection for 5 days. In the combined group, irradiation (7 Gy) was performed on day 3 and 5 of cidofovir.

[15] = test system: non-virally induced tumors; assay: Tumor growth of non-virally induced human xenografts in nude mice; format: in vivo; details: cidofovir intra-tumor 60 mg/kg daily 5 days + irradiation 7 Gy on day 3 and 5
Description: as §9, §10
Irradiation of cells was performed using a ^137Cs γ-rays source at a dose rate of 1.45 Gy.min^−1. […] Quantification of radiosensitivity was obtained by the surviving fraction at 2 Gy (SF2). Cell survival was also assessed by using proliferation tests (incorporation of tritiated thymidine and MTT). […]
The example presented herewith also relates to the combination of cidofovir with irradiation which was evaluated in vivo in various human viral-associated and also in non viral associated human cancers. […]

[16] = test system: HPV+ tumors; assay: Histological sections of HPV+ tumors; format: in vivo, mice; details: Cidofovir combined with irradiation, 2 HPV+ models (data not shown)
Excerpt: At 10 day after treatment, mice with HPV+ tumors from all groups were sacrified and tumors were excised and fixed in 10% neutral buffered formalin (NBF). The sections from each group were heamatoxylin and eosin (H&E)-stained for histological analysis.

[17] = test system: EBV and HPV cancer cells; assay: Radiation-induced DNA repair by Fluorescence In Situ Hybridization (FISH); format: cell-based, human; details: FISH (data not shown)
Excerpt: Cidofovir is a potent inhibitor of the replication of EBV and HPV in cell culture. In addition, the incorporation into the cellular DNA of the infected cell may disrupt the genomic integrity and enhance susceptibility to apoptosis or necrosis.

[18] = test system: human cancer cells; assay: Combination with chemotherapeutic drugs, tumor cell growth; format: cell-based; details: in vitro
Description: Similar experiments combining a nucleoside analogue with cytotoxic agents other than irradiation were performed (chemotherapeutic drugs, cytokines). The example presented herewith relates to the combination of cidofovir with chemotherapeutic drugs which was evaluated in vitro and in vivo in various virus-associated and non virus-associated human cancers.

[19] = test system: cell lines derived from human cervical carcinoma; details: cited from earlier work
[20] = test system: cervical carcinoma xenografts; details: cited from earlier work

For `Nc1ccn(C[C@@H](CO)OCP(=O)(O)O)c(=O)n1` [Cidofovir, (S)-1-[3-hydroxy-2-(phosphonomethoxy)propyl]cytosine], the “E6 band density score” value ([1]; 3 days) was 0.67, the “E6 band density score” value ([1]; 6 days) was 0.32 and the P53 density score ([2]; 3 days) was 2.1. For the same compound, the P53 density score ([2]; 6 days) was 3.7, the “E6 band density score” value ([3]; 3 days) was 0.7 and the “E6 band density score” value ([3]; 6 days) was 0.25. The P53 density score ([4]; 3 days) was 1.2, the P53 density score ([4]; 6 days) was 1.65 and the “expression of the viral oncoprotein E7” value [5] was “decreased expression”. For the same compound, the LMP-1 expression ([6]; 24 hours after exposure (data not shown)) was “significant inhibition”, the LMP-1 expression ([6]; RAJI cells, Cidofovir 10 μg/ml, 48 hrs) was “marked decrease” and the LMP-1 expression [7] was “marked decrease”. The Bcl2 expression [8] was “downregulation”, the Bax expression [9] was “up-regulation” and the apoptosis [10] was “marked increase”. The apoptosis [11] was “marked increase”, the “radiosensitization (decrease of SF2, surviving fraction at 2 Gy)” value [12] was “increased cell kill” and the “radiosensitization (decrease of SF2, surviving fraction at 2 Gy)” value ([12]; listed as cidofovir) was “pronounced radiosensitization”. For the same compound, the “radiosensitization (cell survival)” value [13] was “increased cell kill”, the “radiosensitization (cell survival)” value ([13]; listed as cidofovir) was “markedly radiosensitized” and the “anti-tumor effect, sub-cutaneous versus intra-tumor administration” value ([14]; C15, sub-cutaneous 50 mg/kg cidofovir in combination with irradiation) was “anti-tumor effect of the same magnitude”. The tumor growth delay ([14]; cidofovir alone, 60 mg/kg daily intra-tumor for 5 days) was “weak growth delay”, the tumor growth ([14]; cidofovir intra-tumor 60 mg/kg daily 5 days + irradiation 7 Gy on day 3 and 5) was “dramatically reduced the growth delay; also recorded: major effect on tumor growth” and the “complete remission of tumors” value ([14]; combined treatment, 30 to 40 days after the treatment) was “nearly all the tumors were found to be in complete remission”. The tumor growth [15] was “dramatically reduced the growth delay”, the “tumor necrosis (histological sections)” value [16] was “increased tumor necrosis” and the “radiation-induced DNA repair at the chromosomal level” value [17] was “no significant change”. The “effect on tumor cell growth in combination with VP16” value ([18]; VP16 5 μg/ml) was “synergic inhibitory effect”, the “effect on tumor cell growth in combination with cis platinum” value ([18]; cis platinum 2.5 μg/ml) was “synergic inhibitory effect” and the cell proliferation [19] was “inhibited in a concentration-dependent and in a time-dependent fashion”. For the same compound, the tumor growth ([20]; administered topically or systemically, nontoxic concentrations) was “no reduction of tumor growth” and the tumor size ([20]; injected intratumorally, compared to placebo group) was “statistically significant reduction in tumor size”.
